Results on three molecules are retold here after publication PMC9363482, “The crystal structure of Cry78Aa from Bacillus thuringiensis provides insights into its insecticidal activity” (Communications Biology, 2022).

A word on the Kd: it is a measure of binding affinity in units of concentration. A high value points to lower affinity.

One data set addresses T1, Cry78Aa (Cry78Aa1) (Bacillus thuringiensis, UniProt A0A3S6Q0Y2).
T1 construct: ITC section says only 'Cry78Aa protein'
To be noted: 20 mM Tris-HCl pH 8.0, 25 °C; one-site binding model; 50 mM sugar into 150 µM protein.

For data set [1] the following is noted: other: SDS-PAGE under mild denaturing conditions.

T1 sequence (A0A3S6Q0Y2 1-359 limits assumed): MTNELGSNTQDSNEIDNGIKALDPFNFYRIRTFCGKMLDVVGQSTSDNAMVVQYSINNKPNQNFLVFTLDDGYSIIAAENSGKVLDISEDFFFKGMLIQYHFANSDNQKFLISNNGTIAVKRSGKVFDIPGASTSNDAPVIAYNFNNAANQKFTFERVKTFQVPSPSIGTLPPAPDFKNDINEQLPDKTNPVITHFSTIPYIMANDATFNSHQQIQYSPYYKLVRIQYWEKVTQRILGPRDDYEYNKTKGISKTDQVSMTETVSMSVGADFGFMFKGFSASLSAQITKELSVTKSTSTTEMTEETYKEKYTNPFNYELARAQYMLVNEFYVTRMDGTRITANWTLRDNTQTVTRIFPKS

`CC(=O)N[C@H]1C(O)O[C@H](CO)[C@H](O)[C@@H]1O` (stereo partly drawn) [GalNAc] yielded a Kd at Cry78Aa (Cry78Aa1) of around 9.8 mM.
`OC[C@H]1O[C@@H](O[C@H]2[C@H](O)[C@@H](O)C(O)O[C@@H]2CO)[C@H](O)[C@@H](O)[C@H]1O` (stereo partly drawn) [lactose] yielded an equilibrium dissociation constant (Kd) at Cry78Aa (Cry78Aa1) of around 10.2 mM.
Cry78Aa_(155-359): in data set [1], the “percent of the sample as oligomers or aggregates in 0.1% SDS” value was ~30% of the total sample loaded onto each lane.
